Laboratory results reported in US20260248788A1, “NEW COMPOUNDS AND TREATMENT OF RENAL CELL CARCINOMA” (TRUSTLIFE THERAPEUTICS INC., priority 2023, published 2026).
Entries after “also recorded” stand apart in the source; their conditions may differ.

Legend:
Format in all cases: cell-based, human
BUB1B = experiment: Western blot of BUB1B in Caki-1 cells treated with TG-101209 derivatives; conditions: for expression levels of BUB1B (Western blot): Caki-1 cells, 5 μM of target drug, 1 day (FIG. 41, 56); for expression levels of BUB1B (summary statement): concentration not given
Protocol: (§1) Cell culture 2: Caki-1 was purchased from CLS Cell Lines Service (Germany). The cells were maintained in McCoy's 5A (modified) medium (16600082, Thermo Fisher Scientific, USA) and supplemented with 10% fetal bovine serum (FBS, F7524, Sigma-Aldrich), 1% Penicillin/Streptomycin (P4333, Sigma-Aldrich).
The target drugs developed as alternatives to TG-101209, were dissolved in 0.1% DMSO (41639, Sigma-Aldrich). Caki-1 cells from cell culture 2 were seeded in a 6-well plate at 3×10^5 cells per well. […]
The cells were washed with PBS solution and then lysed with CelLytic M (C2978, Sigma-Aldrich) lysis buffer containing protease inhibitors (11836170001, Roche). The cell lysates were centrifuged at 12 000 rpm for 10 min and supernatants were collected. Protein Assay Dye Reagent (5000006, Bio-Rad) was used for the determination of protein concentration. The absorbance of the proteins was measured spectrophotometrically at 595 nm by a microplate reader (Hidex Sense Beta Plus). Protein electrophoresis was performed using Mini-PROTEAN® TGX™ Precast Gels (4561086, Bio-Rad) and then the separated proteins were transferred to a Trans-Blot Turbo Mini 0.2 μm PVDF Transfer Packs membrane (1704158, Bio-Rad) by using Trans-Blot® Turbo™ Transfer System (Bio-Rad). The membrane was blocked with 5% skim milk for 30 min at 4° C. with gentle rocking. After blocking, the membrane was treated with primary antibodies: Anti-BUB1B (HPA008419, Human Protein Atlas, Sweden) and Anti-Beta actin (ab8227, Abcam) as a loading control overnight at 4° C. on a rocking platform. After the treatment of primary antibodies, the membrane was washed three times with TBS-T buffer (A09-7500-100, Medicago). Then, Goat anti-Rabbit IgG-HRP (ab205718, Abcam) was treated as the secondary antibody for 30 min at 4° C. with gentle rocking.

Caki-1 cells [1] = experiment: MTT cell viability assay; conditions: for cell viability of treated cells (summary statement): concentration not given; for reduction in cell viability (MTT) / effect on cell viability (MTT): 1 day
Protocol: as §1
The cytotoxic effects of the TG-101209 and its alternatives on the Caki-1 cells were tested by MTT (Thiazolyl Blue Tetrazolium Bromide) method. 1.5×10^4 cells were seeded per well in a 96-well plate in 100 μL growth media. […] After the incubation period, 5 mg/ml MTT (M2128, Sigma-Aldrich) solution in PBS (10 μL) was added to each well. After 1 hour, the MTT solution and all media were removed from the wells. 100 μl of DMSO was added and mixed to dissolve the formazan crystals. Cell viability was analysed by measuring the absorbance of the dissolved formazan at a wavelength of 570 nm with a microplate reader (Hidex Sense Beta Plus).

Caki-1 cells [2] = experiment: LDH cytotoxicity assay; conditions: 1 day; for cytotoxicity (LDH assay): Caki-1, 10 μM; for Ranking, Cytotoxicity (%): top five, LDH assay, 10 μM, rank 1 = highest
Protocol: as §1
Lactate dehydrogenase (LDH) assay was performed with LDH Assay Kit (ab65393). […] 20 μl of media was analysed with LDH Assay Kit as per manufacturer's instruction.

With `Cc1cnc(Nc2ccc(N3CCN(C)CC3)cc2)nc1Nc1cccc(S(=O)(=O)Nc2ccccc2)c1` [Compound M3, 3-((5-methyl-2-((4-(4-methylpiperazin-1-yl)phenyl)amino)pyrimidin-4-yl)amino)-N-phenylbenzenesulfonamide] the “expression levels of BUB1B (Western blot)” value (BUB1B) was “significantly lower the expression levels of BUB1B”.

With `Cc1cnc(Nc2ccc(N3CCN(C)CC3)cc2)nc1Nc1cccc(S(=O)(=O)N2CCOCC2)c1` [Compound M7, 5-methyl-N2-(4-(4-methylpiperazin-1-yl)phenyl)-N4-(3-(morpholinosulfonyl)phenyl)pyrimidine-2,4-diamine] the “expression levels of BUB1B (Western blot)” value (BUB1B) was “significantly lower the expression levels of BUB1B”, the “expression levels of BUB1B (summary statement)” value (BUB1B) was “reduction of the expression levels of BUB1B” and the “cell viability of treated cells (summary statement)” value (“cell viability of treated cells” for short) (Caki-1 cells [1]) was “especially low cell viability; also recorded: reduced cell viability”.

For `Cc1cn(-c2cc(Nc3ncc(C)c(Nc4cccc(S(=O)(=O)NC(C)(C)C)c4)n3)cc(C(F)(F)F)c2)cn1` [Compound M64, N-(tert-butyl)-3-((5-methyl-2-((3-(4-methyl-1H-imidazol-1-yl)-5-(trifluoromethyl)phenyl)amino)pyrimidin-4-yl)amino)benzenesulfonamide], the “expression levels of BUB1B (Western blot)” value (BUB1B) was “significantly lower the expression levels of BUB1B”.

For `COc1cc(Nc2ncc(C)c(Nc3cccc(S(=O)(=O)NC(C)(C)C)c3)n2)cc(OC)c1` [Compound M79, N-(tert-butyl)-3-((2-((3,5-dimethoxyphenyl)amino)-5-methylpyrimidin-4-yl)amino)benzenesulfonamide], the “expression levels of BUB1B (Western blot)” value (BUB1B) was “significantly lower the expression levels of BUB1B”, the “expression levels of BUB1B (summary statement)” value (BUB1B) was “reduction of the expression levels of BUB1B” and the “cell viability of treated cells” value (Caki-1 cells [1]) was “especially low cell viability; also recorded: significantly reduced cell viability”.

With `Cc1ccc(Nc2ncc(C)c(Nc3cccc(S(=O)(=O)NC(C)(C)C)c3)n2)cc1Nc1nc(-c2cccnc2)cs1` [Compound M88, N-(tert-butyl)-3-((5-methyl-2-((4-methyl-3-((4-(pyridin-3-yl)thiazol-2-yl)amino)phenyl)amino)pyrimidin-4-yl)amino)benzenesulfonamide] the “expression levels of BUB1B (Western blot)” value (BUB1B) was “significantly lower the expression levels of BUB1B”, the “expression levels of BUB1B (summary statement)” value (BUB1B) was “reduction of the expression levels of BUB1B” and the IC50 (Caki-1 cells [1]; Homo sapiens, 24 h, Caki-1, 1 day (FIG. 43), text: after treatment with 5 μM) was greater than 3 µM. For the same compound, the “cell viability of treated cells” value (Caki-1 cells [1]) was “especially low cell viability; also recorded: significantly reduced cell viability”.

In the case of `COc1cc(NC(=O)c2ccc(Nc3ncc(C)c(Nc4cccc(S(=O)(=O)NC(C)(C)C)c4)n3)cc2)cc(OC)c1` [Compound M101A, 4-((4-((3-(N-(tert-butyl)sulfamoyl)phenyl)amino)-5-methylpyrimidin-2-yl)amino)-N-(3,5-dimethoxyphenyl)benzamide], the “reduction in cell viability (MTT)” value (Caki-1 cells [1]; Caki-1, 5 μM, first batch) is reported as “the greatest”, the “effect on cell viability (MTT)” value (Caki-1 cells [1]; Caki-1, 10 μM, first batch) is reported as “most profound effect” and the “cell viability of treated cells” value (Caki-1 cells [1]) is reported as “particularly low cell viability; also recorded: significantly reduced cell viability”. For the same compound, the “cytotoxicity (LDH assay)” value (Caki-1 cells [2]; first batch) was “exhibited cytotoxicity” and the “Ranking, Cytotoxicity (%)” value (Caki-1 cells [2]) was 5.

In the case of `Cc1cnc(Nc2ccc(C(=O)Nc3cccc(Br)c3)cc2)nc1Nc1cccc(S(=O)(=O)NC(C)(C)C)c1` [Compound M101B, N-(3-bromophenyl)-4-((4-((3-(N-(tert-butyl)sulfamoyl)phenyl)amino)-5-methylpyrimidin-2-yl)amino)benzamide], the “reduction in cell viability (MTT)” value (Caki-1 cells [1]; Caki-1, 5 μM, first batch) is reported as “the greatest”, the “cell viability of treated cells” value (Caki-1 cells [1]) is reported as “particularly low cell viability; also recorded: significantly reduced cell viability” and the “cytotoxicity (LDH assay)” value (Caki-1 cells [2]; first batch) is reported as “exhibited cytotoxicity”. The “Ranking, Cytotoxicity (%)” value (Caki-1 cells [2]) was 3.

With `Cc1cnc(Nc2ccc(C(=O)Nc3cccc(S(=O)(=O)NC(C)(C)C)c3)cc2)nc1Nc1cccc(S(=O)(=O)NC(C)(C)C)c1` [Compound M101D, N-(3-(N-(tert-butyl)sulfamoyl)phenyl)-4-((4-((3-(N-(tert-butyl)sulfamoyl)phenyl)amino)-5-methylpyrimidin-2-yl)amino)benzamide] the “reduction in cell viability (MTT)” value (Caki-1 cells [1]; Caki-1, 5 μM, first batch) was “the greatest”, the “effect on cell viability (MTT)” value (Caki-1 cells [1]; Caki-1, 10 μM, first batch) was “greatest reduction of cell viability” and the “cell viability of treated cells” value (Caki-1 cells [1]) was “particularly low cell viability; also recorded: significantly reduced cell viability”. For the same compound, the “cytotoxicity (LDH assay)” value (Caki-1 cells [2]; first batch) was “highest cytotoxicity” and the “Ranking, Cytotoxicity (%)” value (Caki-1 cells [2]) was 1.

`Cc1cnc(Nc2ccc(C(=O)Nc3cccc(S(=O)(=O)N4CCOCC4)c3)cc2)nc1Nc1cccc(S(=O)(=O)NC(C)(C)C)c1` [Compound M101F, 4-((4-((3-(N-(tert-butyl)sulfamoyl)phenyl)amino)-5-methylpyrimidin-2-yl)amino)-N-(3-(morpholinosulfonyl)phenyl)benzamide] was tested, and the “reduction in cell viability (MTT)” value (Caki-1 cells [1]; Caki-1, 5 μM, first batch) was “the greatest”, the “cell viability of treated cells” value (Caki-1 cells [1]) was “particularly low cell viability; also recorded: significantly reduced cell viability” and the “cytotoxicity (LDH assay)” value (Caki-1 cells [2]; first batch) was “exhibited cytotoxicity”.

With `Cc1cnc(Nc2ccc(C(=O)Nc3ccc(OCCCN4CCOCC4)cc3)cc2)nc1Nc1cccc(S(=O)(=O)NC(C)(C)C)c1` [Compound M101G, 4-((4-((3-(N-(tert-butyl)sulfamoyl)phenyl)amino)-5-methylpyrimidin-2-yl)amino)-N-(4-(3-morpholinopropoxy)phenyl)benzamide] the “reduction in cell viability (MTT)” value (Caki-1 cells [1]; Caki-1, 5 μM, first batch) was “the greatest” and the “cell viability of treated cells” value (Caki-1 cells [1]) was “particularly low cell viability; also recorded: significantly reduced cell viability”.

For `Cc1cnc(Nc2ccc(C(=O)Nc3ccc4ncccc4c3)cc2)nc1Nc1cccc(S(=O)(=O)NC(C)(C)C)c1` [Compound M101H, 4-((4-((3-(N-(tert-butyl)sulfamoyl)phenyl)amino)-5-methylpyrimidin-2-yl)amino)-N-(quinolin-6-yl)benzamide], the “reduction in cell viability (MTT)” value (Caki-1 cells [1]; Caki-1, 5 μM, first batch) was “the greatest” and the “cell viability of treated cells” value (Caki-1 cells [1]) was “particularly low cell viability; also recorded: significantly reduced cell viability”.

In the case of `Cc1ccc(NC(=O)c2ccc(Nc3ncc(C)c(Nc4cccc(S(=O)(=O)NC(C)(C)C)c4)n3)cc2)cc1S(N)(=O)=O` [Compound M101Q, 4-((4-((3-(N-(tert-butyl)sulfamoyl)phenyl)amino)-5-methylpyrimidin-2-yl)amino)-N-(4-methyl-3-sulfamoylphenyl)benzamide], the “cytotoxicity (LDH assay)” value (Caki-1 cells [2]; second batch) is reported as “greatest cytotoxicity”.

In the case of `Cc1cnc(Nc2ccc(C(=O)Nc3ccc(Oc4ccc(Cl)cc4)nc3)cc2)nc1Nc1cccc(S(=O)(=O)NC(C)(C)C)c1` [Compound M101V, 4-((4-((3-(N-(tert-butyl)sulfamoyl)phenyl)amino)-5-methylpyrimidin-2-yl)amino)-N-(6-(4-chlorophenoxy)pyridin-3-yl)benzamide], the “cytotoxicity (LDH assay)” value (Caki-1 cells [2]; second batch) is reported as “greatest cytotoxicity”.

With `COc1cc(Nc2ncc(C)c(Nc3cccc(S(=O)(=O)N4CCOCC4)c3)n2)cc(OC)c1OC` [Compound M115, 5-methyl-N4-(3-(morpholinosulfonyl)phenyl)-N2-(3,4,5-trimethoxyphenyl)pyrimidine-2,4-diamine] the “expression levels of BUB1B (summary statement)” value (BUB1B) was “reduction of the expression levels of BUB1B” and the “cell viability of treated cells” value (Caki-1 cells [1]) was “especially low cell viability; also recorded: reduced cell viability”.

With `Cc1cnc(Nc2ccc(C(=O)Nc3ccc(N4CCN(C)CC4)cc3)cc2)nc1Nc1ccc(N2CCN(C)CC2)cc1` [ME3, 4-((5-methyl-4-((4-(4-methylpiperazin-1-yl)phenyl)amino)pyrimidin-2-yl)amino)-N-(4-(4-methylpiperazin-1-yl)phenyl)benzamide] the “reduction in cell viability (MTT)” value (Caki-1 cells [1]; Caki-1, 10 μM, second batch) was “the greatest” and the “cell viability of treated cells” value (Caki-1 cells [1]) was “particularly low cell viability; also recorded: significantly reduced cell viability”.
